In publication PMC11078990, “Identification and characterization of small molecule inhibitors of the LINE-1 retrotransposon endonuclease” (Nature Communications, 2024):
Values joined by “and” are separate entries in the source; they are usually repeats but may differ in a detail not shown here. Equal values may be shown once. “Also recorded” adds a separate entry of the source. Read-outs that look alike come from different tables or passages of the source.

Columns and labels:
[1] = target: L1 EN (LINE-1 retrotransposon endonuclease domain) (Homo sapiens, UniProt O00370, N5T); assay: Fluorescent oligonucleotide EN nicking activity assay; assay type: biochemical
L1 EN (LINE-1 retrotransposon endonuclease domain), sequence (O00370 1-239 N5T): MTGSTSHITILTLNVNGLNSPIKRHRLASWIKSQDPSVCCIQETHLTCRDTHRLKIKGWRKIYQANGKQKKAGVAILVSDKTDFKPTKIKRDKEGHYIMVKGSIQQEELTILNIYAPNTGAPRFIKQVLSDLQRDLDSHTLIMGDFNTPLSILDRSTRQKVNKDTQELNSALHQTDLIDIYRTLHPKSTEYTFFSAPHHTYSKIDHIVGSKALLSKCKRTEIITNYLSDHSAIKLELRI

[2] = target: T1, APE1 (Homo sapiens, UniProt P27695); assay: APE1 fluorescent oligonucleotide activity assay (abasic site substrate); assay type: biochemical; conditions: for activity at 25 µM: inhibitors at 25 μM, relative to 0 μM inhibitor control, mean ± s.d., 3 independent experiments, read-out: APE1 activity (%)
T1 construct: purchased New England Biolabs (NEB) M0282S

[3] = system: substrate oligonucleotide used in the EN activity assay; assay type: binding; parameters: key to Binding Detected? (Y/N): Binding Detected? (Y/N); Binding Detected? (Y/N)
[4] = system: L1 retrotransposition; assay: HeLa dual-luciferase L1 retrotransposition assay; assay type: cell-based, human; conditions: for L1 retrotransposition, average: average of 4 replicates, Figure 4b; for Luciferase (retrotransposition), replicates: Replicates 1-4
[5] = system: L1-induced DNA damage in HeLa Tet-On cells (full-length L1); assay: γ-H2AX immunofluorescence assay, full-length L1 constructs; assay type: cell-based, human
[6] = system: DNA fragmentation (comet tail length) in HeLa Tet-On cells expressing EN domain; assay: Neutral comet assay, EN domain-only constructs; assay type: cell-based, human; conditions: EN domain-only construct, neutral comet assay, normalised to WT
[7] = system: senescent LF1 human diploid fibroblasts (IL6, IL1β, CCL2, IFNα, MMP3); assay: RT-qPCR of inflammatory markers in replicatively senescent fibroblasts; assay type: cell-based
[8] = system: senescent LF1 human diploid fibroblasts (IFN-I and Aging gene sets); assay: RNA-seq / Gene Set Enrichment Analysis of senescent cultures; assay type: cell-based; conditions: senescent cultures treated 1 month beginning at 3 months senescence
[9] = system: HeLa Tet-On cells; conditions: human, 48 h
[10] = target: EN (Homo sapiens, UniProt O00370, N5T); assay type: biochemical
EN, sequence (O00370 1-239 N5T): as above

[11] = target: T1, APE1; conditions: read-out: Ki for APE1; cited from earlier work
[12] = system: L1-induced DNA damage in HeLa Tet-On cells (EN domain only); assay: γ-H2AX immunofluorescence assay, EN domain-only constructs; assay type: cell-based, human
[13] = [Inhibitor] 5 μM, technical replicates 1-3, Fig. 2b source data, 5 µM
[14] = [Inhibitor] 5 μM, technical replicates 1-3, Fig. 2b source data, read-out: EN activity, percent of no inhibitor control
[15] = [Inhibitor] 25 μM, technical replicates 1-3, Fig. 2b source data, 25 µM
[16] = [Inhibitor] 25 μM, technical replicates 1-3, Fig. 2b source data, read-out: EN activity, percent of no inhibitor control
[17] = [Inhibitor] 50 μM, technical replicates 1-3, Fig. 2b source data, 50 µM
[18] = [Inhibitor] 100 μM, technical replicates 1-3, Fig. 2b source data, 100 µM
[19] = compound at 25 μM, average of 3 replicates
[20] = Figure 4a Graph 3, 50μM, 0μM average 17.91
[21] = Figure 4a Graph 1, 25 μM, 0 μM average 9.554

## COc1ccc2c(c1)C(=O)N(CCc1ccc(S(=O)(=O)NC(=O)NC3CCCCC3)cc1)C(=O)C2(C)C [AD12]
[1]; [13]
  EN activity, percent of no inhibitor control: 77.035% and 74.8653%
[1]; [14]
  remaining activity at 5 µM: 78.7%
[1]; [15]
  EN activity, percent of no inhibitor control: 81.0185% and 81.0517%
[1]; [16]
  remaining activity at 25 µM: 80.7%
[1]; [17]
  EN activity, percent of no inhibitor control: 93.0387% and 96.7449% and 76.3025%
[1]; [18]
  EN activity, percent of no inhibitor control: 74.7453% and 98.1517% and 74.2286%
[1]; [Inhibitor] 250 μM, technical replicates 1-3, Fig. 2b source data, 250 µM
  EN activity, percent of no inhibitor control: 79.2639% and 68.0005%
[1]; [Inhibitor] 250 μM, technical replicates 1-3, Fig. 2b source data, read-out: EN activity, percent of no inhibitor control
  remaining activity at 250 µM: 61.9%
[1]; [Inhibitor] 500 μM, technical replicates 1-3, Fig. 2b source data, 500 µM
  EN activity, percent of no inhibitor control: 55.3249% and 49.2356%
[1]; [Inhibitor] 500 μM, technical replicates 1-3, Fig. 2b source data, read-out: EN activity, percent of no inhibitor control
  remaining activity at 500 µM: 62.1%
[1]; [Inhibitor] 750 μM, technical replicates 1-3, Fig. 2b source data, 750 µM
  EN activity, percent of no inhibitor control: 29.8392% and 18.9487%
[1]; [Inhibitor] 750 μM, technical replicates 1-3, Fig. 2b source data, read-out: EN activity, percent of no inhibitor control
  remaining activity at 750 µM: 18%
[1]; [Inhibitor] 1000 μM, technical replicates 1-3, Fig. 2b source data, 1000 µM
  EN activity, percent of no inhibitor control: 13.0331% and 19.9958%
[1]; [Inhibitor] 1000 μM, technical replicates 1-3, Fig. 2b source data, read-out: EN activity, percent of no inhibitor control
  remaining activity at 1000 µM: 20.4%
[1]; [Inhibitor] 1500 μM, technical replicates 1-3, Fig. 2b source data, 1500 µM
  EN activity, percent of no inhibitor control: 5.3699% and 4.215%
[1]; [Inhibitor] 1500 μM, technical replicates 1-3, Fig. 2b source data, read-out: EN activity, percent of no inhibitor control
  remaining activity at 1500 µM: 4.91%
[2]; 250 µM, Supplementary Fig. 6b, n=3
  Percent APE1 activity, average: 114.2%
[2]; 250 µM, Supplementary Fig. 6b, replicates 1-3
  Percent APE1 activity, replicates: 123.394% and 115.312% and 103.88%
[2]; compound at 25 μM, Replicate 1
  APE1 percent activity, Replicate 1: 105.329%
[2]; compound at 25 μM, Replicate 2
  APE1 percent activity, Replicate 2: 115.007%
[2]; compound at 25 μM, Replicate 3
  APE1 percent activity, Replicate 3: 106.871%
[2]; [19]
  APE1 percent activity, average: 109.069%
[2]
  activity at 25 µM: 109 ± 5.2%
[3]
  Binding Detected? (Y/N): N
[4]; 1 μM inhibitor
  L1 retrotransposition, average: 17.6477
[4]; 5 μM inhibitor
  L1 retrotransposition, average: 10.1662
[4]; 10 μM inhibitor
  L1 retrotransposition, average: 4.75
[4]; 25 μM inhibitor
  L1 retrotransposition, average: 4.785
[4]; 50 μM inhibitor
  L1 retrotransposition, average: 3.467
[4]; 100 μM inhibitor
  L1 retrotransposition, average: 2.555
[4]; [20]
  Luciferase (retrotransposition), average: 3.467
  Luciferase (retrotransposition), replicates: 3.679 and 3.508 and 3.347 and 3.332
[4]; HeLa cells
  Effect on L1 retrotransposition: some activity in the retrotransposition assay
[5]
  Inhibition of DNA damage, full-length L1 experiments: best inhibition
[6]; 50 μM inhibitor
  Nuclei comet tail length, average (WT = 1): 0.8544
[7]; 50 μM, senescent cells, SEN control 5.499, 3 replicates
  MMP3 RT-qPCR, average (EP = 1): 3.608
[7]; 50 μM, senescent cells, SEN control 8.256, 3 replicates
  IL1β RT-qPCR, average (EP = 1): 8.197
[7]; 50 μM, senescent cells, SEN control 8.589, 3 replicates
  CCL2 RT-qPCR, average (EP = 1): 4.591
[7]; 50 μM, senescent cells, SEN control 18.65, 3 replicates
  IFNα RT-qPCR, average (EP = 1): 8.607
[7]; 50 μM, senescent cells, SEN control 22.45, 3 replicates
  IL6 RT-qPCR, average (EP = 1): 8.334
[7]; treated 1 month
  Inhibition of inflammation in senescent cells: showed efficacy
[8]
  Expression of IFN-I gene set and aging gene set (RNA-seq, GSEA): decreased expression
[9]; 50 μM
  PrestoBlue (viability), average: 5.992

## O=C(O)[C@H](CCCCNc1ccc([N+](=O)[O-])cc1[N+](=O)[O-])Nc1ccc([N+](=O)[O-])cc1[N+](=O)[O-] [AD2]
[1]; 2 µM
  EN activity, percent of no inhibitor control: 97.2065% and 90.9835% and 64.2149%
[1]; 10 µM
  EN activity, percent of no inhibitor control: 80.6222% and 62.0824% and 77.8942%
[1]; 25 µM
  EN activity, percent of no inhibitor control: 84.9255% and 87.5391% and 75.5295%
[1]; 50 µM
  EN activity, percent of no inhibitor control: 66.9257% and 62.5652% and 70.9549%
[1]; 100 µM
  EN activity, percent of no inhibitor control: 54.3551% and 40.6401% and 45.1735%
[1]; 500 µM
  EN activity, percent of no inhibitor control: 2.482% and 2.582%
[1]; 1000 µM
  EN activity, percent of no inhibitor control: -0.01768% and 1.001% and 0.6109%
[1]; 2000 µM
  EN activity, percent of no inhibitor control: -4.007% and -5.494% and -4.957%
[2]
  APE1 activity (%): 96.2 ± 3.4%
  APE1 percent activity, Replicate 1: 98.5607%
  APE1 percent activity, Replicate 2: 92.3765%
  APE1 percent activity, Replicate 3: 97.7464%
  APE1 percent activity, average: 96.2279%
  Effect on APE1 activity: inhibited; also recorded: inhibition by the weak APE1 inhibitor AD2 was detected
  Percent APE1 activity, average: 66.36%
  Percent APE1 activity, replicates: 67.8305% and 52.9447% and 78.2943%
[3]
  Binding Detected? (Y/N): N
[10]
  Inhibition of EN activity in plasmid nicking assay: full inhibition
[4]
  Effect on L1 retrotransposition: did not significantly impact retrotransposition
[11]
  Ki: 13 µM

## Nn1cnn2c(SCC(=O)Cc3ccc(-c4nc5cc(NC(=O)CSc6nnc7n(N)cnn67)ccc5o4)cc3)nnc12 [AD16]
[1]; [Inhibitor] 0.2 μM, technical replicates 1-3, Fig. 2b source data, 0.2 µM
  EN activity, percent of no inhibitor control: 82.0267% and 71.1107% and 113.489%
[1]; [Inhibitor] 1 μM, technical replicates 1-3, Fig. 2b source data, 1 µM
  EN activity, percent of no inhibitor control: 95.0279% and 119.352% and 94.1929%
[1]; [13]
  EN activity, percent of no inhibitor control: 53.9202% and 53.7999%
[1]; [14]
  remaining activity at 5 µM: 52.1%
[1]; [Inhibitor] 10 μM, technical replicates 1-3, Fig. 2b source data, 10 µM
  EN activity, percent of no inhibitor control: 8.722% and 8.848%
[1]; [Inhibitor] 10 μM, technical replicates 1-3, Fig. 2b source data, read-out: EN activity, percent of no inhibitor control
  remaining activity at 10 µM: 9.85%
[1]; [15]
  EN activity, percent of no inhibitor control: 4.539% and 2.3611%
[1]; [16]
  remaining activity at 25 µM: 3.82%
[1]; [17]
  EN activity, percent of no inhibitor control: 5.5014% and 3.599%
[1]; [Inhibitor] 50 μM, technical replicates 1-3, Fig. 2b source data, read-out: EN activity, percent of no inhibitor control
  remaining activity at 50 µM: 5.19%
[1]; [18]
  EN activity, percent of no inhibitor control: 3.629% and 2.352%
[1]; [Inhibitor] 100 μM, technical replicates 1-3, Fig. 2b source data, read-out: EN activity, percent of no inhibitor control
  remaining activity at 100 µM: 2.31%
[2]; compound at 25 μM, Replicate 1
  APE1 percent activity, Replicate 1: 93.7909%
[2]; compound at 25 μM, Replicate 2
  APE1 percent activity, Replicate 2: 100.33%
[2]; compound at 25 μM, Replicate 3
  APE1 percent activity, Replicate 3: 92.4773%
[2]; [19]
  APE1 percent activity, average: 95.5327%
[2]
  activity at 25 µM: 95.5 ± 4.2%
[3]
  Binding Detected? (Y/N): Y
  Binding to the oligonucleotide substrate: detectable binding
[4]; 0.5 μM inhibitor
  L1 retrotransposition, average: 6.997
[4]; 1 μM inhibitor
  L1 retrotransposition, average: 6.79
[4]; 5 μM inhibitor
  L1 retrotransposition, average: 6.3671
[4]; 10 μM inhibitor
  L1 retrotransposition, average: 6.224
[4]; 25 μM inhibitor
  L1 retrotransposition, average: 5.375
[4]; 50 μM inhibitor
  L1 retrotransposition, average: 4.14
[4]; [21]
  Luciferase (retrotransposition), average: 3.568
  Luciferase (retrotransposition), replicates: 3.791 and 3.903 and 3.817 and 2.762
[12]
  Inhibition of DNA damage, EN domain-only experiments: better efficacy
[6]; 25 μM inhibitor
  Nuclei comet tail length, average (WT = 1): 0.5888
[9]; 25 μM
  PrestoBlue (viability), average: 13.01
